The source made the active and inactive calls. The calls are words filed in the database; no cut-off is given here.
Experiments:
[1] = target: MAP kinase-interacting serine/threonine-protein kinase 2 (Homo sapiens) (UniProt Q9HBH9); experiment: Inhibition of human recombinant MKNK2 assessed as residual activity at 10 uM after 1 hr by qPCR analysis relative to control
[2] = target: Proto-oncogene tyrosine-protein kinase receptor Ret (Homo sapiens) (UniProt P07949); experiment: Inhibition of human recombinant RET assessed as residual activity at 10 uM after 1 hr by qPCR analysis relative to control
786-0 [3] = experiment: Antitumor activity against human 786-0 cells xenografted in athymic nude/beige mouse assessed as tumor growth inhibition at 0.16 mg/kg, ip qd after 24 days; format: functional, organism-based
[4] = target: SRSF protein kinase 3 (Homo sapiens) (UniProt Q9UPE1); experiment: Inhibition of human recombinant SRPK3 assessed as residual activity at 10 uM after 1 hr by qPCR analysis relative to control
SRSF protein kinase 3 (Homo sapiens), sequence (Q9UPE1 whole entry): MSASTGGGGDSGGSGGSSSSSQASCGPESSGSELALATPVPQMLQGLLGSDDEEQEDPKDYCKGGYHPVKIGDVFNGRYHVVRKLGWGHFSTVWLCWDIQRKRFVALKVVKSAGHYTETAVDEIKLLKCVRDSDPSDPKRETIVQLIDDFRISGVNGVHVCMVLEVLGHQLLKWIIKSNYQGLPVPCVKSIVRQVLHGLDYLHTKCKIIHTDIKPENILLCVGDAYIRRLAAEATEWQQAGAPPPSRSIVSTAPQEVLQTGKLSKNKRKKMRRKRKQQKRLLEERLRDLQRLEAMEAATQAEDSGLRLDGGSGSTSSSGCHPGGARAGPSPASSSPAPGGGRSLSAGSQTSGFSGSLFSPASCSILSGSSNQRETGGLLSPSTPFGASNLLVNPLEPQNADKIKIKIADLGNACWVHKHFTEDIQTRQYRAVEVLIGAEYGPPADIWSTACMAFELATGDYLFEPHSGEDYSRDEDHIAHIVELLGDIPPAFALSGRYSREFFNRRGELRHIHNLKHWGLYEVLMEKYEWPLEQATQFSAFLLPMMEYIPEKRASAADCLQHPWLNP

[5] = target: Serine/threonine-protein kinase PAK 1 (Homo sapiens) (UniProt Q13153); experiment: Inhibition of human recombinant PAK1 assessed as residual activity at 10 uM after 1 hr by qPCR analysis relative to control
Serine/threonine-protein kinase PAK 1 (Homo sapiens), sequence (Q13153 whole entry): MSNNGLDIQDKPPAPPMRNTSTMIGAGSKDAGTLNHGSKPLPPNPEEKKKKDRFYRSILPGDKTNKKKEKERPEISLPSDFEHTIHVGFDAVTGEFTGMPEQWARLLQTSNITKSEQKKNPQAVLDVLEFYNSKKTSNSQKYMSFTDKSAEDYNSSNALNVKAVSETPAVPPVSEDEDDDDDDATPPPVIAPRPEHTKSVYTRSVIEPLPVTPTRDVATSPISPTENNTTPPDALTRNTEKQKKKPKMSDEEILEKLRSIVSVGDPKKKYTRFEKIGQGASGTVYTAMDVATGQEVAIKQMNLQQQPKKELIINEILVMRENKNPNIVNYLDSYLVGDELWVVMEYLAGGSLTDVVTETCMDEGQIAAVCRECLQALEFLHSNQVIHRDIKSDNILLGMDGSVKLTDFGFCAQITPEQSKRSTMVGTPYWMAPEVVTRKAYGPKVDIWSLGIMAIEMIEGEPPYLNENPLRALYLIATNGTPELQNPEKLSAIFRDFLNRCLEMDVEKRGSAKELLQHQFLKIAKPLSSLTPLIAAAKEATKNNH

[6] = target: High affinity nerve growth factor receptor (Homo sapiens) (UniProt P04629); experiment: Inhibition of human recombinant TRKA assessed as residual activity at 10 uM after 1 hr by qPCR analysis relative to control
[7] = target: Epidermal growth factor receptor (Homo sapiens) (UniProt P00533); experiment: Inhibition of human recombinant EGFR assessed as residual activity at 10 uM after 1 hr by qPCR analysis relative to control
786-0 [8] = experiment: Antitumor activity against human 786-0 cells xenografted in athymic nude/beige mouse assessed as reduction in tumor mass at 0.16 mg/kg, ip qd after 24 days; format: functional, organism-based
[9] = target: Serine/threonine-protein kinase PAK 2 (Homo sapiens) (UniProt Q13177); experiment: Inhibition of human recombinant PAK2 assessed as residual activity at 10 uM after 1 hr by qPCR analysis relative to control
Mus musculus [10] = experiment: Toxicity in athymic nude/beige mouse xenografted with human 786-O cells assessed as dark circles around eyes at 0.16 mg/kg, ip qd after 24 days; format: organism-based, 786-0; details: in vivo, 576 h
[11] = target: Cyclin-dependent kinase 2 (Homo sapiens) (UniProt P24941); experiment: Inhibition of human recombinant CDK2 assessed as residual activity at 10 uM after 1 hr by qPCR analysis relative to control
Mus musculus [12] = experiment: Toxicity in athymic nude/beige mouse xenografted with human 786-O cells assessed as mild spasm at 0.16 mg/kg, ip qd after 24 days; format: organism-based, 786-0; details: in vivo, 576 h
[13] = target: Serine/threonine-protein kinase 32C (Homo sapiens) (UniProt Q86UX6); experiment: Inhibition of human recombinant YANK3 assessed as residual activity at 10 uM after 1 hr by qPCR analysis relative to control
Serine/threonine-protein kinase 32C (Homo sapiens), sequence (Q86UX6 whole entry): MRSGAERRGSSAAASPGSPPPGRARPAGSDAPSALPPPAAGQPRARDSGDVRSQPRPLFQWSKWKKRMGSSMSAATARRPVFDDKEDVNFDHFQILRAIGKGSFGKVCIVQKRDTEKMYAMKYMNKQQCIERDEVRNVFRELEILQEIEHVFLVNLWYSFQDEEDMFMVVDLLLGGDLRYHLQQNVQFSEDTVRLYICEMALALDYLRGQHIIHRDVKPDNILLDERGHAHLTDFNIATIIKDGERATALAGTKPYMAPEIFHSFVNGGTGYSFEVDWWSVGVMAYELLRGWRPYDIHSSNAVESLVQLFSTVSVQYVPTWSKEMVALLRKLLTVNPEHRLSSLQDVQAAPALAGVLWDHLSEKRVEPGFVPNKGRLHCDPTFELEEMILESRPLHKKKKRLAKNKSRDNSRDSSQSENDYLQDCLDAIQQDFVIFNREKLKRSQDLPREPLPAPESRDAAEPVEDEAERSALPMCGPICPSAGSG

[14] = target: Dual specificity mitogen-activated protein kinase kinase 2 (Homo sapiens) (UniProt P36507); experiment: Inhibition of human recombinant MEK2 assessed as residual activity at 10 uM after 1 hr by qPCR analysis relative to control
Dual specificity mitogen-activated protein kinase kinase 2 (Homo sapiens), sequence (P36507 whole entry): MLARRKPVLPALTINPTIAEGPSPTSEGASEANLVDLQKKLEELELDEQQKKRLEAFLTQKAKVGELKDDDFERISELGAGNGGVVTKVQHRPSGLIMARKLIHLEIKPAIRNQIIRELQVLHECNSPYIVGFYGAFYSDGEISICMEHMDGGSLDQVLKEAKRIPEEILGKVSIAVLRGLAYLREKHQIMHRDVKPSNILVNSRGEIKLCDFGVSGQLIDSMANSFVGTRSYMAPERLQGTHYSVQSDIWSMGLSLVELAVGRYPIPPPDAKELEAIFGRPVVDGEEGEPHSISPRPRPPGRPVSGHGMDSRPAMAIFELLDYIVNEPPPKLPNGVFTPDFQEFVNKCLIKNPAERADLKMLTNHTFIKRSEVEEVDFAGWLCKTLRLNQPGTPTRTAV

[15] = target: Hepatocyte growth factor receptor (Homo sapiens) (UniProt P08581); experiment: Inhibition of human recombinant MET assessed as residual activity at 10 uM after 1 hr by qPCR analysis relative to control
[16] = target: Activin receptor type-1B (Homo sapiens) (UniProt P36896); experiment: Inhibition of human recombinant ACVR1B assessed as residual activity at 10 uM after 1 hr by qPCR analysis relative to control
Activin receptor type-1B (Homo sapiens), sequence (P36896 whole entry): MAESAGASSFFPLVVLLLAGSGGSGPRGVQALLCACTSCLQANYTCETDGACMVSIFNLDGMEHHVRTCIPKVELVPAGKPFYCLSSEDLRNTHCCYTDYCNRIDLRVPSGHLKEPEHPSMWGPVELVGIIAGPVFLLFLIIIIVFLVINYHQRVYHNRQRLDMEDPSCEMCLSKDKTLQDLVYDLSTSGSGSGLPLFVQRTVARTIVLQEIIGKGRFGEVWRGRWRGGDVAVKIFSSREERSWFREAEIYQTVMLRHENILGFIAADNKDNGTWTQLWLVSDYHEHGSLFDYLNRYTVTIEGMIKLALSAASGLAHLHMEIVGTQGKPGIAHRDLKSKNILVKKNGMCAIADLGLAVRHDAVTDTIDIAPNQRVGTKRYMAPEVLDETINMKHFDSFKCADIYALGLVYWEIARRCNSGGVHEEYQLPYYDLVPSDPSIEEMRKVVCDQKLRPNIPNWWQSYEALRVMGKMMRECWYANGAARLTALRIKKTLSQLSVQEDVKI

[17] = target: Insulin-like growth factor 1 receptor (Homo sapiens) (UniProt P08069); experiment: Inhibition of human recombinant IGF1R assessed as residual activity at 10 uM after 1 hr by qPCR analysis relative to control
Insulin-like growth factor 1 receptor (Homo sapiens), sequence (P08069 31-736 limits assumed): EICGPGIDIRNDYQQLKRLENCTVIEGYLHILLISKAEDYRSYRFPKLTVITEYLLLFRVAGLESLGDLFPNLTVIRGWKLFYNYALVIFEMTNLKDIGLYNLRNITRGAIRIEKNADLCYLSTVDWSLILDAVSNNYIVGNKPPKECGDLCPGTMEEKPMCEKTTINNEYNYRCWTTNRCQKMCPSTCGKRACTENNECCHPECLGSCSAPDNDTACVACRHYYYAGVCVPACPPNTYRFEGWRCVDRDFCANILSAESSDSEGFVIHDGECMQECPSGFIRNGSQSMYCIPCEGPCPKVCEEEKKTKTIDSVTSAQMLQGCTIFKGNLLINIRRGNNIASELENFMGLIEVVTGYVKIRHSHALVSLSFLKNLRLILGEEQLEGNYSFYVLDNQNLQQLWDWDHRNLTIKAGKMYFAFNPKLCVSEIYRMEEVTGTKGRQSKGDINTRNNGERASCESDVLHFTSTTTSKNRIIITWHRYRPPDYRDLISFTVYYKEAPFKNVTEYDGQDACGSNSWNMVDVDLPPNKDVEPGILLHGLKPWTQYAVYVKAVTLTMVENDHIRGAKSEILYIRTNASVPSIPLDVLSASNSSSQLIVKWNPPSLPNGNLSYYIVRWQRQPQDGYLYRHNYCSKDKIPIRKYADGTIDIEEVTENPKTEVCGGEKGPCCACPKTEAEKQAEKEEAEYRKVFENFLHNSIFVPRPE
Insulin-like growth factor 1 receptor (Homo sapiens), sequence (P08069 741-1367 limits assumed): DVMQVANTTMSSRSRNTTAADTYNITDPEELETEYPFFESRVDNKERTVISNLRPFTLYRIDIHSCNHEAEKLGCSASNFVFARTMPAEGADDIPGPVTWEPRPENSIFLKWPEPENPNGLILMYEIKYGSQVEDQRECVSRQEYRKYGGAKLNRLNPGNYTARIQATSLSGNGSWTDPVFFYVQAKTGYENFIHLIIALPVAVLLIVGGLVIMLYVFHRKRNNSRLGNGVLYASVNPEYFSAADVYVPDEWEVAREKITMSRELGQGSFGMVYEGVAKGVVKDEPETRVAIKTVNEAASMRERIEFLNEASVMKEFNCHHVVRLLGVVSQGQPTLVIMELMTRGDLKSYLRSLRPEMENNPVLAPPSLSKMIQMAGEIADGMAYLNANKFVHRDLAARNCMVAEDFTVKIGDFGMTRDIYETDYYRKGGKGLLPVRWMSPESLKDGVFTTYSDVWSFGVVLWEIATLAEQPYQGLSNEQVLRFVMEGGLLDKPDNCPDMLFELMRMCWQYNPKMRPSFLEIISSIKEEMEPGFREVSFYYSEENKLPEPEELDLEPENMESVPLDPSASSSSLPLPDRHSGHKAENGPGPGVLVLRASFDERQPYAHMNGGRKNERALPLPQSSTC

[18] = target: Serine/threonine-protein kinase pim-2 (Homo sapiens) (UniProt Q9P1W9); experiment: Inhibition of human recombinant PIM2 assessed as residual activity at 10 uM after 1 hr by qPCR analysis relative to control
[19] = target: Cyclin-dependent kinase 7 (Homo sapiens) (UniProt P50613); experiment: Inhibition of human recombinant CDK7 assessed as residual activity at 10 uM after 1 hr by qPCR analysis relative to control
[20] = target: Tyrosine-protein kinase JAK3 (Homo sapiens) (UniProt P52333); experiment: Inhibition of human recombinant JAK3 (JH1 domain-catalytic) assessed as residual activity at 10 uM after 1 hr by qPCR analysis relative to control
[21] = target: Mitogen-activated protein kinase 14 (Homo sapiens) (UniProt Q16539); experiment: Inhibition of human recombinant p38alpha assessed as residual activity at 10 uM after 1 hr by qPCR analysis relative to control
[22] = target: Dual specificity tyrosine-phosphorylation-regulated kinase 1B (Homo sapiens) (UniProt Q9Y463); experiment: Inhibition of human recombinant DYRK1B assessed as residual activity at 10 uM after 1 hr by qPCR analysis relative to control
[23] = target: Atypical kinase COQ8A, mitochondrial (Homo sapiens) (UniProt Q8NI60); experiment: Inhibition of human recombinant ADCK3 assessed as residual activity at 10 uM after 1 hr by qPCR analysis relative to control
[24] = target: Angiopoietin-1 receptor (Homo sapiens) (UniProt Q02763); experiment: Inhibition of human recombinant TIE2 assessed as residual activity at 10 uM after 1 hr by qPCR analysis relative to control
[25] = target: Fibroblast growth factor receptor 2 (Homo sapiens) (UniProt P21802); experiment: Inhibition of human recombinant FGFR2 assessed as residual activity at 10 uM after 1 hr by qPCR analysis relative to control
[26] = test system: Epidermal growth factor receptor (Homo sapiens), P00533 [L858R]; experiment: Inhibition of human recombinant EGFR L858R mutant assessed as residual activity at 10 uM after 1 hr by qPCR analysis relative to control; format: protein assay
[27] = target: Tyrosine-protein kinase ABL1 (Homo sapiens) (UniProt P00519); experiment: Inhibition of human recombinant phosphorylated ABL1 assessed as residual activity at 10 uM after 1 hr by qPCR analysis relative to control
[28] = target: Phosphatidylinositol 4,5-bisphosphate 3-kinase catalytic subunit alpha isoform (Homo sapiens) (UniProt P42336); experiment: Inhibition of human recombinant PIK3CA assessed as residual activity at 10 uM after 1 hr by qPCR analysis relative to control
Phosphatidylinositol 4,5-bisphosphate 3-kinase catalytic subunit alpha isoform (Homo sapiens), sequence (P42336 whole entry, canonical isoform): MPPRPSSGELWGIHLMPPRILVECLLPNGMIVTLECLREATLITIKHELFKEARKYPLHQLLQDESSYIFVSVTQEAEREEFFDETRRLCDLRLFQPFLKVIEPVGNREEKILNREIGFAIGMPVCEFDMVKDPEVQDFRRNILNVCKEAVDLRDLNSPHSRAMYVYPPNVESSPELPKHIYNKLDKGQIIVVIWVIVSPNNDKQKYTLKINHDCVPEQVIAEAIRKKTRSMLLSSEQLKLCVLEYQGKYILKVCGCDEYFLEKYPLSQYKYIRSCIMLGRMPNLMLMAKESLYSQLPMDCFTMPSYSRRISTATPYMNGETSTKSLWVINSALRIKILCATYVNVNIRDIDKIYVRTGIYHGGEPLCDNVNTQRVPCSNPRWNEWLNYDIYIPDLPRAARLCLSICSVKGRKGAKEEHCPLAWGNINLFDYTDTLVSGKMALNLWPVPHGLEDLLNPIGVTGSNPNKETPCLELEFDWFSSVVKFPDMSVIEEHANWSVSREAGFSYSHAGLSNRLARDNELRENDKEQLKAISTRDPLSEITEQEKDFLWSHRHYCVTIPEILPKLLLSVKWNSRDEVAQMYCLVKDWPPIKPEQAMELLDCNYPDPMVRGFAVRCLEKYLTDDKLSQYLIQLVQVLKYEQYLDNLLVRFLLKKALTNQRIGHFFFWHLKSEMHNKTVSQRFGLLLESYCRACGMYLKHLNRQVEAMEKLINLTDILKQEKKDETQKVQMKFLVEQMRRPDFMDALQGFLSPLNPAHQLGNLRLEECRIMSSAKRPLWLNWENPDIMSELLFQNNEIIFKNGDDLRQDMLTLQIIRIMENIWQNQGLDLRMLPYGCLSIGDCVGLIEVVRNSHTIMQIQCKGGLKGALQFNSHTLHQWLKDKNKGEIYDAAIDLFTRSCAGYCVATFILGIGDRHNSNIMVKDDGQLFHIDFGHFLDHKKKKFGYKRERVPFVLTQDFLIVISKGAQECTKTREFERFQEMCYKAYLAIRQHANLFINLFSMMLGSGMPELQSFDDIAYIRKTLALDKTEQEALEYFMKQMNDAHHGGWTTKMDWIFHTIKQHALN

[29] = target: Serine/threonine-protein kinase PAK 4 (Homo sapiens) (UniProt O96013); experiment: Inhibition of human recombinant PAK4 assessed as residual activity at 10 uM after 1 hr by qPCR analysis relative to control
[30] = target: Protein kinase C epsilon type (Homo sapiens) (UniProt Q02156); experiment: Inhibition of human recombinant PRKCE assessed as residual activity at 10 uM after 1 hr by qPCR analysis relative to control
[31] = target: Serine/threonine-protein kinase RIO2 (Homo sapiens) (UniProt Q9BVS4); experiment: Inhibition of human recombinant RIOK2 assessed as residual activity at 10 uM after 1 hr by qPCR analysis relative to control

Structure (SMILES): Cc1c(Cl)cccc1NC(=O)c1sc2nc3c(cc2c1N)C(=O)CC3
- Activity [1]: 91%
- Activity [2]: 100%
- TGI (786-0 [3]): Active
- Activity [4]: 100%
- Activity [5]: 87%
- Activity [6]: 84%
- Activity [7]: 100%
- Activity (786-0 [8]): Active
- Activity [9]: 95%
- Activity (Mus musculus [10]): Toxic
- Activity [11]: 100%
- Activity (Mus musculus [12]): Toxic
- Activity [13]: 62%
- Activity [14]: 98%
- Activity [15]: 100%
- Activity [16]: 100%
- Activity [17]: 97%
- Activity [18]: 80%
- Activity [19]: 99%
- Activity [20]: 100%
- Activity [21]: 100%
- Activity [22]: 57%
- Activity [23]: 96%
- Activity [24]: 100%
- Activity [25]: 100%
- Activity [26]: 92%
- Activity [27]: 100%
- Activity [28]: 100%
- Activity [29]: 85%
- Activity [30]: 100%
- Activity [31]: 43%
